Reference: patent publication US20200199647A1, “ASSAY FOR SCREENING MODULATORS OF HOLOPHOSPHATASE ACTIVITY” (UNITED KINGDOM RESEARCH AND INNOVATION, priority 2017, published 2020)

Assays:
R15A = target: T1, R15A (Homo sapiens, UniProt O75807); assay: Pull-down: binding of P-eIF2α to MBP-tagged R15A on amylose beads; details: 200 μM compound, 200 nM MBP-R15A, 1 μM P-eIF2α, 10 min 4° C.
T1 construct: PPP1R15A amino acids 325-636 (R15A); His6 (C); made in house; host or cells: E. coli BL21 pLysS
Method: Purified MBP-tagged regulatory subunits (200 nM), P-eIF2α (1 μM), PP1c ([…]), and 200 μM compounds, or DMSO vehicle, were added as appropriate to 20 μl amylose magnetic bead, pre-equilibrated with interaction buffer (50 mM Tris (pH 7.4), 200 mM NaCl, 0.05% Tween20) in 200 μl volume. All protein dilutions were carried out in interaction buffer. 5% input sample was removed, and added to 4× Laemmli sample buffer for later analysis. The beads were incubated for 10′ at 4° C. The supernatant was removed, and the beads were washed thoroughly with interaction buffer and then resuspended with 50 μl of 2× Laemmli sample buffer. Samples were run on 4-12% NuPAGE Bis-Tris gels (Life Technologies) and analysed by immunoblotting, using anti-MBP HRP (E8038) (NEB), anti-eIF2α (ab26197) (AbCam) or anti-PPP1A (ab137512) (AbCam) antibodies.

R15B = target: T2, R15B (Homo sapiens, UniProt Q5SWA1); assay: Limited trypsin proteolysis of R15B (conformational change); details: 22° C.
T2 construct: PPP1R15B amino acids 340-698 (R15B); His6 (C); made in house; host or cells: E. coli BL21 pLysS
T2 sequence (Q5SWA1 340-698): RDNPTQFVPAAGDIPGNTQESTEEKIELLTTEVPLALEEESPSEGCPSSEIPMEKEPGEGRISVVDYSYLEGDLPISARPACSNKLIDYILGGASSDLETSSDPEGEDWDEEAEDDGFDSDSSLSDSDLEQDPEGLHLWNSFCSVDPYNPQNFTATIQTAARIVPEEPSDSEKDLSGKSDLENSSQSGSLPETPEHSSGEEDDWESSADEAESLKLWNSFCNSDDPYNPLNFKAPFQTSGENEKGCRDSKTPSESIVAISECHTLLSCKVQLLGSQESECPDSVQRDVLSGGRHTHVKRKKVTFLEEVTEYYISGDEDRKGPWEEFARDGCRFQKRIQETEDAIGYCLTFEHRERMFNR
Method: Reactions were allowed to proceed at 22° C. with shaking at 350 rpm. At time points 30 min, 1 h, 2 h or 3 h, 30 μl of sample was removed from the mix and digestion was stopped by addition of 10 μl of 16% SDS Laemmli sample buffer. Samples were run on 4-12% NuPAGE Bis-Tris gels (Life Technologies). Proteins were visualised by staining with InstantBlue Coomassie Protein Stain (Expedeon) protein stain.
Purified R15A and R15B were diluted to 3 μM in PBS, and incubated for 15′ at RT with 100 μM Raphin1, or DMSO vehicle. Reactions were initiated by addition of 5 nM of trypsin from bovine pancreas (Sigma), made up in PBS, and allowed to proceed for 5′ at 22° C., with shaking at 350 rpm. Digestion was stopped by addition of 4× Laemmli sample buffer and samples were run on 4-12% NuPAGE Bis-Tris gels (Life Technologies). Proteins were visualised by staining with InstantBlue Protein Stain.

R15B^N/R15A^C = target: T3, R15B^N/R15A^C (Homo sapiens, UniProt O75807+Q5SWA1); assay: Dephosphorylation of P-eIF2α by chimeric holophosphatase PP1c-R15B^N/R15A^C; format: biochemical; details: PP1c 10 nM, compounds 100 μM, 30° C., 16 h
T3 construct: PPP1R15B amino acids 340-698 (R15B), 340-635 (R15B^N), and 636-698 (R15B^C); PPP1R15A amino acids 325-636 (R15A), 325-512 (R15A^N), and 513-636 (R15A^C); R15A^C (PPP1R15A amino acids 513-636); His6 (C); made in house; host or cells: E. coli BL21 pLysS (chimera, eIF2α); E. coli BL21/pGro7 (PP1c)
T3 sequence (Q5SWA1+O75807 fused, stated change not applied): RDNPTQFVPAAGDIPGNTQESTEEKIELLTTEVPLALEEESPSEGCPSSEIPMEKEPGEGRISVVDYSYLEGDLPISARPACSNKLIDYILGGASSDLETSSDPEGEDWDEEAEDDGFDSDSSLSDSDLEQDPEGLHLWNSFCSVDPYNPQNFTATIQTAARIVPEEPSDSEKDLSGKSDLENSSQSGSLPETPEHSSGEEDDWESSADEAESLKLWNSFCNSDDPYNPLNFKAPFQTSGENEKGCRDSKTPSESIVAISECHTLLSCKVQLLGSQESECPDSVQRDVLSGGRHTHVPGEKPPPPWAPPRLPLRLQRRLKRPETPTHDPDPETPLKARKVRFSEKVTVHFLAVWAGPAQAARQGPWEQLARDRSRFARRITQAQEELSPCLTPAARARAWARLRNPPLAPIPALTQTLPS
T3 sequence (P62136 7-330 partner): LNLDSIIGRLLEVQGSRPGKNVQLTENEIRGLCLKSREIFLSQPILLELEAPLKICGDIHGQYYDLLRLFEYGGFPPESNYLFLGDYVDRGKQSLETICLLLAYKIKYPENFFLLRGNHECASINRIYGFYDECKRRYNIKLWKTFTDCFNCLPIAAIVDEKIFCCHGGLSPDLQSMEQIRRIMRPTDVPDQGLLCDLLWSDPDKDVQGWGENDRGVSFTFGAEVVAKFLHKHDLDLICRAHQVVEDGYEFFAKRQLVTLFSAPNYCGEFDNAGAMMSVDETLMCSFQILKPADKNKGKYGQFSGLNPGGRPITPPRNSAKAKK
Excerpt: The cDNA encoding human PPP1R15A, PPP1R15B and PPP1R3A regulatory subunits were cloned into a pMAL-c5×-His vector, encoding for an amino-terminal MBP-tag and a carboxy-terminal His6-tag. […] R15A^N/R15B^C Chimeras were obtained by swapping the amino-terminal regions (R15^N) of R15A and R15B proteins described above, whilst maintaining the same carboxy-terminal regions (R15^C), to produce R15B^N/R15A^C and […] chimeras respectively, using In-Fusion cloning (Takara). All regulatory subunits were expressed in BL21 pLysS cells in Luria broth (LB) at 30° C. overnight. […] R15 proteins were stored at −80° C. and used within one month.
(§1) PP1c was diluted to the appropriate concentration (as indicated in the figure legends) in dephosphorylation buffer immediately prior to use. Dephosphorylation reactions were carried out by pre-incubating diluted PP1c in the presence or absence of regulatory subunits (either […]), and/or compounds (all at 100 μM, except for Salubrinal which was used at 30 μM), for 15′ at RT. All compounds were diluted in DMSO, and DMSO vehicle was used in all control experiments.
The reaction was initiated by the addition of 1 μM P-eIF2α or ^33P Phosphorylase a substrates and then incubated at 30° C. for 16 h with shaking at 350 rpm. Reactions were stopped by addition of 4× Laemmli sample buffer. eIF2α samples were analyzed by immunoblotting or Phos-tag gels. […]

PP1c = target: T4, PP1c (Homo sapiens, UniProt P62136); assay: Dephosphorylation of P-eIF2α by increasing amounts of PP1c alone; format: biochemical; details: compound 100 μM, 30° C., 16 h
T4 construct: The cDNA encoding amino acids 7-330 of human PP1cα; made in house; host or cells: E. coli BL21/pGro7 (PP1c); E. coli BL21 pLysS (eIF2α)
T4 sequence (P62136 7-330): as the sequence (P62136 7-330 partner) above
Method: as §1
(§2) The reaction was initiated by the addition of 1 μM P-eIF2α or ^33P Phosphorylase a substrates and then incubated at 30° C. for 16 h with shaking at 350 rpm. Reactions were stopped by addition of 4× Laemmli sample buffer. eIF2α samples were analyzed by immunoblotting or Phos-tag gels. […] Samples in FIG. 8 and FIG. 16 were run on a 15% SuperSep Phos-tag acrylamide gel (Alpha Laboratories) and visualized by staining with InstantBlue Protein Stain.

R15A-PP1c = target: T5, R15A-PP1c (Homo sapiens, UniProt O75807); assay: In vitro dephosphorylation of P-eIF2α by recombinant R15A-PP1c holophosphatase (10 nM PP1c); format: biochemical; details: PP1c 10 nM, 1 μM P-eIF2α, compounds 100 μM, 30° C., 16 h
T5 construct: PPP1R15A amino acids 325-636 (R15A); His6 (C); made in house; host or cells: E. coli BL21 pLysS (R15A, eIF2α); E. coli BL21/pGro7 (PP1c)
T5 sequence (O75807 325-636, stated change not applied): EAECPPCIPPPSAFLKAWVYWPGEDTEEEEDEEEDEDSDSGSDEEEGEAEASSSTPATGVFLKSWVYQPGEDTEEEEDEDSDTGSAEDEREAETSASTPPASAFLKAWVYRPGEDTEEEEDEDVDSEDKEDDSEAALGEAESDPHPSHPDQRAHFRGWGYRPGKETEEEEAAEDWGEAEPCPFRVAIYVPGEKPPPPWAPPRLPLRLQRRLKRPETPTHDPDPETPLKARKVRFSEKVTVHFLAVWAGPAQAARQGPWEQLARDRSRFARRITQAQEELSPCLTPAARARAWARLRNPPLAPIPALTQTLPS
T5 sequence (P62136 7-330 partner): as the sequence (P62136 7-330 partner) above
Method: as §1, §2

T1 sequence (O75807 325-636, stated change not applied): as the sequence (O75807 325-636, stated change not applied) above

Q: `N=C(N)N/N=C/c1c(Cl)cccc1Cl` [Guanabenz] was tested. Which “effect on binding of eIF2α to R15A” value (R15A) did it give?
A: decreased the binding of R15A to eIF2α

Q: And the “sensitivity of R15B to trypsin proteolysis” value (R15B; 100 μM compound, 0.5 μM R15B, 2.5 nM trypsin, 30 min to 3 h)?
A: No such protective effects

Q: What about the “inhibition of R15B^N/R15A^C chimeric holophosphatase” value (R15B^N/R15A^C) of the same molecule?
A: largely insensitive

Q: What about the “inhibition of PP1c alone” value (PP1c) of the same molecule?
A: did not inhibit PP1c

Q: What about the “inhibition of R15A-PP1c eIF2α holophosphatase” value (R15A-PP1c) of the same molecule?
A: selectively inhibited R15A-PP1c

Q: `NC(N)=N/N=C/c1cccc(Cl)c1Cl` [Raphin1] was tested. Which “effect on binding of eIF2α to R15A” value (R15A) did it give?
A: this inhibition was not observed with R15A

Q: And the “trypsin sensitivity of R15B” value (R15B; 100 μM Raphin1, 3 μM R15B, 5 nM trypsin, 5 min)?
A: protected R15B

Q: What about the “inhibition of R15B^N/R15A^C chimeric holophosphatase” value (R15B^N/R15A^C) of the same molecule?
A: selectively inhibited R15B^N/R15A^C

Q: And the “inhibition of PP1c alone” value (PP1c)?
A: did not inhibit PP1c

Q: What about the “inhibition of R15A-PP1c eIF2α holophosphatase” value (R15A-PP1c) of the same molecule?
A: not R15A-PP1c
